13 compounds from US20140018384A1, “QUINOLINONE DERIVATIVES FOR USE IN THE TREATMENT OF AN AUTOIMMUNE DISEASE AND/OR AN INFLAMMATORY DISEASE” (PRONOXIS AB, priority 2011, published 2014) can be followed below.

Where two headings read alike, the source gives them in different places.

Experiment [1] deals with Rat granulocytes. In words: ROS production in thioglycollate-recruited rat granulocytes, isoluminol chemiluminescence assay. Type of experiment: cell-based. Conditions: 25 μM compound, compared to DMSO control cells; FIGS. 2A and B. The protocol:
(§1) FIG. 2: ROS production and effect on T cell arthritogeniciy of ROS inducing substances. A-B). Thioglycolate recruited rat granulocytes (in accordance with the procedure in Biological Example 3) were treated with 25 μM substance and measurement of ROS production was initiated immediately using an isoluminol based chemiluminescence assay (FIGS. 2A and 2B). […] C-D) Arthritogenic rat splenocytes were treated with 12.5 μM substance during 44 hours ex vivo incubation in presence of ConA (FIGS. 2C and 2D). Following incubation, cells were washed and injected i.p. into naive recipient rats (n=8-11). Disease severity in recipient rats was followed by investigation of macroscopic swelling and redness of the rat joints. Treatment with substance during ex vivo stimulation prevented transfer of arthritogenic T cells.
Rat granulocytes were recruited to the peritoneum by an i.p. injection of 2.4% thioglycollate medium (autoclaved). The peritoneal cavity was washed after 24 hours with ice cold HBSS. Collected cells were, after lysis of red blood cells, washed and resupended in HBSS. In a total volume of 100 μl, compound (25 μM), isoluminol (0.175 mg/ml) and horseradish peroxidase (fraction II) (1.75 U/ml) was added to the cells (0.1*10̂6/well) and resulting ROS production detected as a luminescence signal (fluorescent unit, FU) over time. […] All samples were analysed at least in duplicates.

The test system of experiment [2] is arthritogenic T cells. In words: Adoptive transfer of ex vivo treated arthritogenic T cells (splenocytes) to naive recipient DA rats. Type of experiment: in vivo, rat. The following applies: for T cells capacity to transfer arthritis to naive recipients: 12.5 μM substance, 44 hours ex vivo with ConA, cells injected i.p. into DA rats, FIGS. 2C and D. As to the method: Arthritogenic cells were treated with H2O2 (176-1.76 μM) for 20 min and A) granulocytes and B) T cells (see FIGS. 1A and 1B) were investigated for intracellular ROS using a DHR-123 based flow cytometric assay. […] Arthritogenic cells were cultured in presence of Con A and w/wo H2O2 (176-1.76 μM) for 44 hours and then transferred to naïve recipient rats (n=7-9).
as §1
In order to investigate the effect of ROS on T cell arthritogenicity, spleens were collected from arthritis susceptible DA rats injected with the arthritis inducing oil pristane (0.5 ml per rat s.c.) day −13. Single cell suspensions were prepared from the spleens and red blood cells were lysed. After wash, cells were resuspended in cell culture medium containing concanavalin A (ConA) to a final concentration of 4.5×10̂6 cells/ml. […] The cells were incubated for 44 hours at 37° C. After incubation the cells were washed and resuspended in PBS to a final concentration of 60*10̂6 cells/ml. Cells were injected i.p. (1 ml/rat) into naïve recipient DA rats and disease was followed by macroscopic evaluation of disease.
In order to investigate the effect of ROS inducing substances on T cell arthritogenicity, spleens were collected from arthritis susceptible DA rats injected with the arthritis inducing oil pristane (0.5 ml per rat s.c.) day −13. Single cell suspensions were prepared from the spleens and red blood cells were lysed.
After wash, cells were resuspended in cell culture medium containing concanavalin A (ConA) to a final concentration of 4.5×10̂6 cells/ml. Substance A or B was added to the cells to a final concentration of 12.5 μM. The cells were incubated for 44 hours at 37° C. Control cells were incubated in presence of vehicle control (DMSO). After incubation the cells were washed and resuspended in PBS to a final concentration of C) 30*10̂6 and D) 60*10̂6 cells/ml. Cells were injected i.p. (1 ml/rat) into naïve recipient DA rats and disease was followed by macroscopic evaluation of disease (n=8-11).

Experiment [3] relates to PLB-985 cells. In words: ROS production (isoluminol/HRP luminescence) in PLB-985 cells, Biological Example 1. Type of experiment: cell-based. Conditions: 25 μM compound vs. DMSO. In short, it runs like this:
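Cells in HBSS received compound plus isoluminol and HRP; luminescence followed 10–30 min, AUC divided by control to give fold change in NADPH oxidase activity. HL-60: 50 μM compound vs blank; PLB-985: 25 μM compound vs blank or vs DMSO.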

Experiment [4] relates to HL-60 cells. In words: ROS production (isoluminol/HRP luminescence) in HL-60 cells, Biological Example 1. It counts as cell-based. The following applies: Homo sapiens, 50 μM compound vs. blank, read-out: Activity A (fold increase of NADPH activity compared to control). The protocol:
To cells (HL-60 or PLB-985) in HBSS medium was added compound (25 or 50 μM), isoluminol and Horse Radish Peroxidase, fraction II. Luminescence was measured for 10-30 minutes and the area under the […] curve was divided by that from a control experiment to give the activity expressed as fold change.
Each assay indicated below was performed at a different site, at a different time, by different personnel and/or using different cell lines, concentrations and controls. The cell line, concentration of example compound and control used in respect of each assay were as indicated below. The values obtained from these different setups (each using an otherwise identical assay) are given as Activity A, B, C, D or E in Table 5 below. The values are expressed as fold increase of NADPH activity in the presence of the relevant of compound (as indicated below) compared to the relevant control (as indicated below).
Activity A: HL-60 cells; 50 μM compound vs. blank Activity B: PLB-985 cells; 25 μM compound vs. blank Activity C, D and E: PLB-985 cells; 25 μM compound vs. DMSO

Experiment [5] deals with granulocytes and T cells. Conditions: H2O2 176-1.76 μM for 20 min.
Experimental: In order to measure the effect of exogenous ROS on intracellular ROS content, single cell suspensions were prepared from rat spleens. After lysis of red blood cells (0.84% ammonium chloride) the cells were stained with antibody His-48-bio (anti-granulocyte) or R73-bio (anti-T cell receptor) followed by staining with streptavidine-APC. Cells were then resuspended in DMEM containing DHR-123 and incubated for 10 minutes at 37° C. […] After 20 minutes incubation, cells were washed, resuspended in PBS and acquired in a FACScalibur. […] Samples were analysed in triplicates.
[6] abbreviates: setup C, read-out: Activity C (fold increase of NADPH activity compared to control).

`O=C(Cn1cc(C(=O)c2ccc3ccccc3c2)c(=O)c2cc3c(cc21)OCO3)Nc1ccc(Cl)cc1` [Example 1, N-(4-Chlorophenyl)-2-[6,7-methylenedioxy-3-(2-naphthoyl)-4-oxo-1-quinolinyl]-acetamide]: in experiment [1], the “cellular ROS production (luminescence signal over time)” value is given as “clear induction of cellular ROS production”. For the same compound, the “T cells capacity to transfer arthritis to naive recipients” value in experiment [2] is listed as “significantly alters the T cells capacity to transfer arthritis to naïve recipients”. Further, the fold induction at 25 µM in experiment [3] (setting [6]) is 45.3; in experiment [3] (setup D, read-out: Activity D (fold increase of NADPH activity compared to control)), 27.4; in experiment [3] (setup E, read-out: Activity E (fold increase of NADPH activity compared to control)), 8.5.
In the case of `COc1ccc(NC(=O)Cn2cc(C(=O)c3ccccc3)c(=O)c3cc4c(cc32)OCO4)c(OC)c1` [Example 84, 2-(3-Benzoyl-6,7-methylenedioxy-4-oxo-1-quinolinyl)-N-(2,4-dimethoxyphenyl)acetamide], in experiment [1], the “cellular ROS production (luminescence signal over time)” value is given as “clear induction of cellular ROS production”. In addition, in experiment [2], the “T cells capacity to transfer arthritis to naive recipients” value is reported as “significantly alters the T cells capacity to transfer arthritis to naïve recipients”. In experiment [3] (setting [6]), the fold induction at 25 µM is 8.4.
As for `CCOc1ccc2c(c1)c(=O)c(C(=O)c1ccc(C)cc1)cn2CC(=O)Nc1ccccc1C` [Example 91, 2-(6-Ethoxy-4-oxo-3-p-toluoyl-1-quinolinyl)-N-o-tolylacetamide], the fold induction at 50 µM in experiment [4] amounted to 5.3.
On to `O=C(Cn1cc(C(=O)c2ccc(Cl)cc2)c(=O)c2cc3c(cc21)OCO3)Nc1ccc(F)cc1` [Example 92, 2-[3-(4-Chlorobenzoyl)-6,7-methylenedioxy-4-oxo-1-quinolinyl]-N-(4-fluorophenyl)acetamide], for which, in experiment [4], the fold induction at 50 µM is 8.2.
Turning to `COc1ccc(NC(=O)Cn2cc(C(=O)c3ccc(F)cc3)c(=O)c3cc4c(cc32)OCO4)c(OC)c1` [Example 93, N-(2,4-Dimethoxyphenyl)-2-[3-(4-fluorobenzoyl)-6,7-methylenedioxy-4-oxo-1-quinolinyl]acetamide], the fold induction at 50 µM in experiment [4] came out at 2.9.
For `CCOc1ccc(C(=O)c2cn(CC(=O)Nc3ccc(OC)cc3)c3cc4c(cc3c2=O)OCO4)cc1` [Example 94, N-p-Anisyl-2-[3-(4-ethoxybenzoyl)-6,7-methylenedioxy-4-oxo-1-quinolinyl]acetamide], the fold induction at 50 µM in experiment [4] came to 8.4.
For `O=C(Cn1cc(S(=O)(=O)c2ccc(F)cc2)c(=O)c2cc3c(cc21)OCO3)Nc1ccccc1` [Example 96, 2-[3-(4-Fluorobenzenesulfonyl)-6,7-methylenedioxy-4-oxo-1-quinolinyl]-N-phenylacetamide], the fold induction at 50 µM in experiment [4] was determined as 2.3.
In the case of `Cc1ccc(C(=O)c2cn(CC(=O)Nc3ccc(F)c(F)c3)c3cc4c(cc3c2=O)OCO4)cc1` [Example 97, N-(3,4-Difluorophenyl)-2-(6,7-methylenedioxy-4-oxo-3-p-toluoyl-1-quinolinyl)acetamide], the fold induction at 50 µM in experiment [4] came out at 6.
For the compound `CCc1ccc(C(=O)c2cn(CC(=O)Nc3ccc(OC)cc3)c3cc4c(cc3c2=O)OCO4)cc1` [Example 98, N-p-Anisyl-2-[3-(4-ethylbenzoyl)-6,7-methylenedioxy-4-oxo-1-quinolinyl]acetamide], the fold induction at 50 µM in experiment [4] was 9.
Turning to `CCOc1ccc(NC(=O)Cn2cc(C(=O)c3ccccc3)c(=O)c3cc4c(cc32)OCO4)cc1` [Example 99, 2-(3-Benzoyl-6,7-methylenedioxy-4-oxo-1-quinolinyl)-N-(4-ethoxyphenyl)acetamide], the fold induction at 50 µM in experiment [4] amounted to 4.3.
Still for that read-out and setting: with `CCc1ccc(C(=O)c2cn(CC(=O)Nc3ccc(F)cc3)c3cc4c(cc3c2=O)OCO4)cc1` [Example 100, 2-[3-(4-Ethylbenzoyl)-6,7-methylenedioxy-4-oxo-1-quinolinyl]-N-(4-fluorophenyl)acetamide] the figure was 2.9.
For the compound `Cc1ccc(C(=O)c2cn(CC(=O)Nc3ccccc3C)c3cc4c(cc3c2=O)OCO4)cc1` [Example 101, 2-(6,7-Methylenedioxy-4-oxo-3-p-toluoyl-1-quinolinyl)-N-o-tolylacetamide], the fold induction at 50 µM in experiment [4] is 2.1.
For `OO` [Example H2O2, Hydrogen peroxide, reference compound], in experiment [5], the “intracellular ROS” value is reported as “Intracellular ROS reflected amount of H2O2 added”. In addition, the “mean arthritis severity in recipient rats” value in experiment [2] (cells cultured 44 hours with Con A at lower concentrations of H2O2 (below 88 μM)) is recorded as “the effect is lost”; in experiment [2] (cells cultured 44 hours with Con A in presence of 176 μM and 88 μM H2O2), “significant reduction”.
